Test results reported in PubChem BioAssay AID720677 (Sanford-Burnham Center for Chemical Genomics, 2013).
Activity calls are given as the source filed them.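 How the source made its calls: active means compounds whose IC50 is at or below a set limit; inactive means the rest.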

molecular target: Bcl-2-like protein 10 (Homo sapiens) (UniProt Q9HD36); experiment: small molecules blocking Bcl-B/Bim BH3 binding – biochemical, fluorescence polarization, set 2, SAR follow-up (AID 720677); conditions: GST-Bcl-B / FITC-Bim peptide fluorescence polarization displacement
Sequence (Q9HD36 whole entry, looked up): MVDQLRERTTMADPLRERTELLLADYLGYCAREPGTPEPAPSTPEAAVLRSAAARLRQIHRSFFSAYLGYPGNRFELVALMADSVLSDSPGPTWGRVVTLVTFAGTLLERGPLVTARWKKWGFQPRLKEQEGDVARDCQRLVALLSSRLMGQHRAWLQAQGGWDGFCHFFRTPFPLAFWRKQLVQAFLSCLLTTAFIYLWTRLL

Compound | IC50
O=c1c2c(n3cnnc3n1Cc1ccc(F)cc1)-c1cc(F)ccc1CC21CCCC1 | > 20000 nM (inactive)
COc1ccc(Cn2c(=O)c3c(n4cnnc24)-c2cc(F)ccc2CC32CCCC2)cc1 | 3430 nM
O=c1c2c(n3nnnc3n1Cc1ccccc1Cl)-c1ccccc1CC21CCCC1 | > 20000 nM (inactive)
COc1ccccc1Cn1c(=O)c2c(n3nnnc13)-c1ccccc1CC21CCCC1 | > 20000 nM (inactive)

Next, values leading:

IC50 | Compound
985 nM | COc1cccc(Cn2c(=O)c3c(n4nnnc24)-c2ccccc2CC32CCCC2)c1
1010 nM | COc1ccc(Cn2c(=O)c3c(n4nnnc24)-c2cc(F)ccc2CC32CCCC2)cc1
795 nM | COc1ccc(Cn2c(=O)c3c(n4nnnc24)-c2ccccc2CC32CCCC2)cc1
